Laboratory results published in patent publication US20240310388A1, “DIAGNOSTIC METHODS FOR HIDRADENITIS SUPPURATIVA” (AMGEN INC., priority 2023, published 2024).

Legend:
[1] = test system: subjects with moderate to severe hidradenitis suppurativa (Hurley stage II or III); assay: Phase 2 clinical study (NCT03852472, AURORA): HiSCR, AN count, DF count and IHS4 at Week 12; type: in vivo, human; details: for HiSCR response rate % (n/N): biomarker sample subset of AURORA (n = 68 HS patients), placebo 25
Method: The study was a randomized, double-blind, placebo-controlled, three group Phase 2 trial in 435 subjects with moderate to severe hidradenitis suppurativa (Hurley stage II or III). Subjects were randomized 1:1:1 to a treatment of 10 mg avacopan twice daily, 30 mg avacopan twice daily or a placebo twice daily for 12 weeks. Following the 12 weeks double-blind treatment period, subjects on placebo were re-randomized 1:1 to receive 10 mg or 30 mg avacopan twice daily for additional 24 weeks. Subjects treated with avacopan continued to receive the same dose (either 10 mg or 30 mg twice daily) for additional 24 weeks. Subjects were on study treatment for 36 weeks and were followed for 8 weeks for assessment of safety and efficacy. The primary efficacy analysis was at 12 weeks. The primary efficacy endpoint assessed by the proportion of subjects achieving Hidradenitis Suppurativa Clinical Response (HiSCR) at Week 12. • At least 18 years of age • Clinical diagnosis of HS (Hurley Stage II or III), confirmed by a dermatologist, for at least 6 months prior to Screening • HS lesions are present in at least 2 distinct anatomic areas • Inadequate or loss of response to a systemic course of antibiotics typically of at least 90 days • Must have at least 5 inflammatory nodules or abscesses at screening • Use adequate birth control for subject and partners of child bearing potential • Willing and able to give written Informed Consent • Pregnant or breast-feeding • Any other skin disease that may interfere with the assessment of HS • Rapidly progressive, expanding HS within 30 days prior to screening • More than 20 draining fistulae at screening • Any anti-TNF-α treatment for HS or for other conditions prior to Day 1 visit will be prohibited. Exception: Subjects who were previously treated with an anti-TNF-α drug and discontinued treatment >12 weeks prior to Day 1 visit are allowed for enrollment • Systemic antibiotics are generally excluded • Topical antibiotics use within 14 days prior to Day 1 is excluded • Have started a topical prescription medicine for HS within 14 days prior to screening • A systemic medicine for HS, including biologics and other systemic therapies • Have received within 14 days prior to Day 1 visit or is expected to require oral or transdermal opioid analgesics (except for tramadol) for any reason The proportion of subjects achieving HiSCR at Week 12 is calculated as those subjects having at least a 50% reduction from baseline in abscess and inflammatory nodule (AN) count, with no increase in abscess count and no increase in draining fistula count number at Week 12 divided by the total number of subjects with non-missing value in each treatment group. p-values are obtained from a Cochran-Mantel-Haenszel (CMH) test stratified by stratification factors Hurley Stage (Stage II vs. III), and anti-TNF drug use (Treatment naïve vs. Previous treatment). Plasma samples were collected at baseline prior to the start of treatment from 68 enrolled HS patients in phase II AURORA study (NCT03852472) and from 20 independent age and gender matched healthy controls.

HS patients = assay: Phase 2 clinical study (NCT03852472): safety and tolerability; type: in vivo, human
Method: The study was a randomized, double-blind, placebo-controlled, three group Phase 2 trial in 435 subjects with moderate to severe hidradenitis suppurativa (Hurley stage II or III). Subjects were randomized 1:1:1 to a treatment of 10 mg avacopan twice daily, 30 mg avacopan twice daily or a placebo twice daily for 12 weeks. Following the 12 weeks double-blind treatment period, subjects on placebo were re-randomized 1:1 to receive 10 mg or 30 mg avacopan twice daily for additional 24 weeks. Subjects treated with avacopan continued to receive the same dose (either 10 mg or 30 mg twice daily) for additional 24 weeks.
Subjects were on study treatment for 36 weeks and were followed for 8 weeks for assessment of safety and efficacy. The primary efficacy analysis was at 12 weeks.

Compound: Cc1ccc(NC(=O)[C@H]2CCCN(C(=O)c3c(C)cccc3F)[C@H]2c2ccc(NC3CCCC3)cc2)cc1C(F)(F)F [avacopan]
- % Difference (avacopan − placebo) in HiSCR ([1]; Hurley Stage II, Week 12, avacopan 10 mg BID): −13.9%
- % Adjusted difference (avacopan − placebo) in HiSCR ([1]; Hurley Stage II, Week 12, avacopan 10 mg BID, 95% CI (−26.8, −0.2)): −13.8%
- HiSCR Responder Rate, n/N ([1]; Hurley Stage II, Week 12, avacopan 10 mg BID, placebo 35.3, p=0.0473): 21.4%
- HiSCR Responder Rate, n/N ([1]; Hurley Stage II, Week 12, avacopan 10 mg BID, placebo 35.3, p=0.0473, listed as Avacopan): 18/84 (21.4) %
- % Difference (avacopan − placebo) in HiSCR ([1]; Hurley Stage II, Week 12, avacopan 30 mg BID): −4.3%
- % Adjusted difference (avacopan − placebo) in HiSCR ([1]; Hurley Stage II, Week 12, avacopan 30 mg BID, 95% CI (−18.1, 9.6)): −4.3%
- HiSCR Responder Rate, n/N ([1]; Hurley Stage II, Week 12, avacopan 30 mg BID, placebo 35.3, p=0.5469): 27/87 (31.0) %
- HiSCR Responder Rate, n/N ([1]; Hurley Stage III (ITT1), Week 12, avacopan 10 mg BID, placebo 22.2): 24.0%
- HiSCR Responder Rate, n/N ([1]; Hurley Stage III (ITT1), Week 12, avacopan 10 mg BID, placebo 22.2, listed as Avacopan): 12/50 (24) %
- HiSCR Responder Rate, n/N ([1]; Hurley Stage III (ITT1), Week 12, avacopan 30 mg BID, placebo 22.2, p=0.0349 (text)): 42.6%
- HiSCR Responder Rate, n/N ([1]; Hurley Stage III (ITT1), Week 12, avacopan 30 mg BID, placebo 22.2, p=0.0349 (text), listed as Avacopan): 20/47 (42.6) %
- IHS4, AN, draining fistula and abscess count ([1]; Hurley Stage III patients, week 12): consistent reduction
- % Difference (avacopan − placebo) in HiSCR ([1]; Hurley Stage III, Week 12, avacopan 10 mg BID): 1.8%
- % Adjusted difference (avacopan − placebo) in HiSCR ([1]; Hurley Stage III, Week 12, avacopan 10 mg BID, 95% CI (−15.3, 18.3)): 1.8%
- % Difference (avacopan − placebo) in HiSCR ([1]; Hurley Stage III, Week 12, avacopan 30 mg BID): 20.3%
- % Adjusted difference (avacopan − placebo) in HiSCR ([1]; Hurley Stage III, Week 12, avacopan 30 mg BID, 95% CI (1.6, 37.9)): 20.8%
- percentage reduction in IHS4 Score ([1]; Hurley Stage III, Week 12, avacopan 30 mg BID, placebo 20.7%): 36.9%
- percentage reduction in AN count ([1]; Hurley Stage III, Week 12, avacopan 30 mg BID, placebo 23.7%): 40.8%
- percentage reduction in DF count ([1]; Hurley Stage III, Week 12, avacopan 30 mg BID, placebo 24.0%): 45.2%
- HiSCR response rate % (n/N) ([1]; avacopan 10 mg): 29.2 (7/24) %
- HiSCR response rate % (n/N) ([1]; avacopan 30 mg): 54.2 (13/24) %
- improvement in HiSCR vs. placebo ([1]; pre-specified Hurley Stage III (severe HS) patients at 12 weeks): statistically significant dose-dependent improvement
- safety and tolerability (HS patients): safe and well tolerated
